Data as given in patent US11851411B2, “Herbicidal compounds” (SYNGENTA CROP PROTECTION AG, priority 2018, dated 2023).

Legend:
Assay type in all cases: in vivo
[1] = tested on: Abutilon theophrasti (ABUTH); test: Glasshouse herbicide test, post-emergence; conditions: POST Application; 500 g/h; evaluated after 13 days
Description: (§1) Seeds of a variety of test species are shown in standard soil in pots (Lolium perenne (LOLPE), Amaranthus retoflexus (AMARE), Abutilon theophrasti (ABUTH), Setaria faberi (SETFA), Echinochloa crus-galli (ECHCG), Ipomoea hederacea (IPOHE)). After cultivation for one day (pre-emergence) or after 8 days cultivation (post-emergence) under controlled conditions in a glasshouse (at 24/16° C., day/night; 14 hours light; 65% humidity), the plants are sprayed with an aqueous spray solution derived from the formulation of the technical active ingredient in acetone/water (50:50) solution containing 0.5% Tween 20 (polyoxyethelyene sorbitan monolaurate, CAS RN 9005-64-5). Compounds are applied at 500 g/h. The test plants are then grown in a glasshouse under controlled conditions in a glasshouse (at 24/16° C., day/night; 14 hours light; 65% humidity) and watered twice daily. After 13 days for pre and post-emergence, the test is evaluated for the percentage damage caused to the plant. The biological activities are shown in the following table on a five point scale (5=80-100%; 4=60-79%; 3=40-59%; 2=20-39%; 1=0-19%).

[2] = tested on: Amaranthus retoflexus (AMARE); test: Glasshouse herbicide test, post-emergence; conditions: POST Application; 500 g/h; evaluated after 13 days
Description: as §1

[3] = tested on: Echinochloa crus-galli (ECHCG); test: Glasshouse herbicide test, post-emergence; conditions: POST Application; 500 g/h; evaluated after 13 days
Description: as §1

[4] = tested on: Ipomoea hederacea (IPOHE); test: Glasshouse herbicide test, post-emergence; conditions: POST Application; 500 g/h; evaluated after 13 days
Description: as §1

Setaria faberi (SETFA) [5] = test: Glasshouse herbicide test, post-emergence; conditions: POST Application; 500 g/h; evaluated after 13 days
Description: as §1

[6] = tested on: Abutilon theophrasti (ABUTH); test: Glasshouse herbicide test, pre-emergence; conditions: PRE Application; 500 g/h; evaluated after 13 days
Description: as §1

[7] = tested on: Amaranthus retoflexus (AMARE); test: Glasshouse herbicide test, pre-emergence; conditions: PRE Application; 500 g/h; evaluated after 13 days
Description: as §1

[8] = tested on: Echinochloa crus-galli (ECHCG); test: Glasshouse herbicide test, pre-emergence; conditions: PRE Application; 500 g/h; evaluated after 13 days
Description: as §1

[9] = tested on: Ipomoea hederacea (IPOHE); test: Glasshouse herbicide test, pre-emergence; conditions: PRE Application; 500 g/h; evaluated after 13 days
Description: as §1

Setaria faberi (SETFA) [10] = test: Glasshouse herbicide test, pre-emergence; conditions: PRE Application; 500 g/h; evaluated after 13 days
Description: as §1

[11] = tested on: Amaranthus retroflexus (AMARE); test: Comparative experiment, post-emergence phytotoxicity; conditions: POST Application; Rate 125 g/ha
Description: (§2) A comparative experiment is conducted to show the advantage provided by the compounds of the present invention. Thus the biological performance of representative compounds 1.001, 1.043, 2.002 & 2.024 of the present invention are compared with Compound C1, which is an aniline compound of the type referred to in WO2012/028579. Results are given as (%) phytotoxicity observed.

Setaria faberi (SETFA) [12] = test: as above; conditions: POST Application; Rate 125 g/ha
Description: as §2

SMILES | percentage damage caused to the plant, five point scale, ABUTH [1] | percentage damage caused to the plant, five point scale, AMARE [2] | percentage damage caused to the plant, five point scale, ECHCG [3] | percentage damage caused to the plant, five point scale, IPOHE [4] | percentage damage caused to the plant, five point scale, SETFA (Setaria faberi (SETFA) [5]) | percentage damage caused to the plant, five point scale, ABUTH [6] | percentage damage caused to the plant, five point scale, AMARE [7] | percentage damage caused to the plant, five point scale, ECHCG [8] | percentage damage caused to the plant, five point scale, IPOHE [9] | percentage damage caused to the plant, five point scale, SETFA (Setaria faberi (SETFA) [10]) | (%) phytotoxicity observed, AMARE [11] [%] | (%) phytotoxicity observed, SETFA (Setaria faberi (SETFA) [12]) [%]
CON(C(C)=O)c1c(C(F)(F)F)ccc(C(=O)Nc2nnnn2C)c1Cl [Compound 1.001, 3-[acetyl(methoxy)amino]-2-chloro-N-(1-methyltetrazol-5-yl)-4-(trifluoromethyl)benzamide] | 5 (5=80-100%) | 5 (5=80-100%) | 5 (5=80-100%) | 5 (5=80-100%) | 5 (5=80-100%) | 5 (5=80-100%) | 5 (5=80-100%) | 5 (5=80-100%) | 5 (5=80-100%) | 5 (5=80-100%) | 90 | 90
CON(C)c1c(S(C)(=O)=O)ccc(C(=O)Nc2nnnn2C)c1Cl [Compound 1.043, 2-chloro-3-[methoxy(methyl)amino]-4-methylsulfonyl-N-(1-methyltetrazol-5-yl)benzamide] | 5 (5=80-100%) | 5 (5=80-100%) | 5 (5=80-100%) | 5 (5=80-100%) | 5 (5=80-100%) | 5 (5=80-100%) | 5 (5=80-100%) | 5 (5=80-100%) | 5 (5=80-100%) | 5 (5=80-100%) | 100 | 90
CCCON(C)c1c(S(C)(=O)=O)ccc(C(=O)Nc2nnnn2C)c1Cl [Compound 1.056] | 5 (5=80-100%) | 5 (5=80-100%) | 5 (5=80-100%) | 5 (5=80-100%) | 5 (5=80-100%) | 5 (5=80-100%) | 5 (5=80-100%) | 5 (5=80-100%) | 5 (5=80-100%) | 5 (5=80-100%) |  | 
CC(C)ON(C)c1c(S(C)(=O)=O)ccc(C(=O)Nc2nnnn2C)c1Cl [Compound 1.057] | 5 (5=80-100%) | 5 (5=80-100%) | 5 (5=80-100%) | 5 (5=80-100%) | 5 (5=80-100%) | 5 (5=80-100%) | 5 (5=80-100%) | 5 (5=80-100%) | 5 (5=80-100%) | 5 (5=80-100%) |  | 
CCS(=O)(=O)c1ccc(C(=O)Nc2nnnn2C)c(Cl)c1N(C)OC [Compound 1.062] | 5 (5=80-100%) | 5 (5=80-100%) | 5 (5=80-100%) | 5 (5=80-100%) | 5 (5=80-100%) | 5 (5=80-100%) | 5 (5=80-100%) | 5 (5=80-100%) | 5 (5=80-100%) | 5 (5=80-100%) |  | 
CON(C(=O)C(C)(C)C)c1c(C(F)(F)F)ccc(C(=O)Nc2nnnn2C)c1F [Compound 1.063] | 5 (5=80-100%) | 5 (5=80-100%) | 5 (5=80-100%) | 4 (4=60-79%) | 5 (5=80-100%) | 5 (5=80-100%) | 5 (5=80-100%) | 5 (5=80-100%) | 2 (2=20-39%) | 5 (5=80-100%) |  | 
CON(C)c1c(C(F)(F)F)ccc(C(=O)Nc2nnnn2C)c1F [Compound 1.065] | 5 (5=80-100%) | 5 (5=80-100%) | 5 (5=80-100%) | 5 (5=80-100%) | 5 (5=80-100%) | 5 (5=80-100%) | 5 (5=80-100%) | 5 (5=80-100%) | 5 (5=80-100%) | 5 (5=80-100%) |  | 
CON(C(C)=O)c1c(C(F)(F)F)ccc(C(=O)Nc2nnc(C)o2)c1Cl [Compound 2.001] | 5 (5=80-100%) | 5 (5=80-100%) | 5 (5=80-100%) | 5 (5=80-100%) | 5 (5=80-100%) | 5 (5=80-100%) | 5 (5=80-100%) | 5 (5=80-100%) | 4 (4=60-79%) | 5 (5=80-100%) |  | 
CON(C(=O)OC(C)(C)C)c1c(C(F)(F)F)ccc(C(=O)Nc2nnc(C)o2)c1Cl [Compound 2.009, tert-butyl N-[2-chloro-3-[(5-methyl-1,3,4-oxadiazol-2-yl)carbamoyl]-6-(trifluoromethyl)phenyl]-N-methoxy-carbamate] | 3 (3=40-59%) | 3 (3=40-59%) | 5 (5=80-100%) | 3 (3=40-59%) | 5 (5=80-100%) | 3 (3=40-59%) | 5 (5=80-100%) | 5 (5=80-100%) | 1 (1=0-19%) | 2 (2=20-39%) |  | 
CCC(=O)N(OC)c1c(C(F)(F)F)ccc(C(=O)Nc2nnc(C)o2)c1Cl [Compound 2.018] | 5 (5=80-100%) | 5 (5=80-100%) | 5 (5=80-100%) | 5 (5=80-100%) | 5 (5=80-100%) | 5 (5=80-100%) | 5 (5=80-100%) | 5 (5=80-100%) | 4 (4=60-79%) | 5 (5=80-100%) |  | 
Cn1nnnc1NC(=O)c1ccc(C(F)(F)F)c(N)c1Cl [Compound C1, reference compound] |  |  |  |  |  |  |  |  |  |  | 10 | 20
